Data on one compound can be found in patent EP0393575B1, “Neoplasia treatment compositions containing antineoplastic agent and side-effect reducing protective agent” (priority 1989, dated 1990).

Read-outs that look alike come from different tables or passages of the source.

The subject of series [1] is normal BDF₁ mice. The method, then:
The effect of carbetimer on acute adriamycin toxicity in normal BDF₁ mice was evaluated. Normal BDF₁ mice were treated with carbetimer alone at 1700 mg/kg i.p. with adriamycin alone at 21 mg/kg i.v. or the combination of the two drugs, carbetimer being given half an hour before adriamycin. […] Data are reported in Table I and depicted in Figure 1.

Series [2] concerns normal BDF₁ mice. The method, then:
The effect of carbetimer on sub-acute adriamycin toxicity in normal BDF₁ mice was evaluated. Normal BDF₁ mice were treated either with adriamycin alone at 21 mg/kg i.v. or with adriamycin at 21 mg/kg i.v. plus carbetimer 500 mg/kg i.v. given concurrently. […]
The source holds these as a separate data set.

Series [3] concerns normal BDF₁ mice. As to the method:
The effect of carbetimer on sub-acute adriamycin toxicity in normal BDF₁ mice was evaluated. Normal BDF₁ mice were treated either with adriamycin alone at 21 mg/kg i.v. or with adriamycin at 21 mg/kg i.v. plus carbetimer 250 mg/kg i.v. given concurrently. […] Data are reported in Table III in absolute weights of animals and depicted in Figure 3 in terms of percent of original weights of the animals.
The source holds these as a separate data set.

Series [4] deals with normal BDF₁ mice. As to the method:
The effect of carbetimer on sub-acute adriamycin toxicity in normal BDF₁ mice was evaluated. Normal BDF₁ mice were treated either with adriamycin alone at 21 mg/kg i.v. or with adriamycin at 21 mg/kg i.v. plus carbetimer 125 mg/kg i.v. given concurrently. […] Data are reported in Table IV in absolute weights of animals and depicted in Figure 4 in terms of percent of original weights of the animals.
The source holds these as a separate data set.

Series [5] relates to MIA C51 cell line. Kind of series: Trial VI: survival of rats inoculated with tumor cells. Format: in vivo. The settings on record: Adriamycin 10 mg/kg i.v. Day One Only. As to the method: Rats were inoculated with a million cells of MIA C51 cell line. Thereafter, animals were treated with saline control, carbetimer alone at 1700 mg/kg in days 1-5, or adriamycin at 10 mg/kg i.v., or adriamycin 10 mg/kg i.v. plus carbetimer at 1700 mg/kg i.p. Animals treated with the combination of carbetimer and adriamycin remained alive 40 days after treatment. The combination therapy provided greater tumor remission than carbetimer alone or adriamycin alone, indicating two drugs may act in an additive or synergistic manner to cure tumors in tumor-bearing rats. Data are reported in Table VI and depicted in Figure 6.

[6] abbreviates: lethal dose of adriamycin alone, 21 mg/kg i.v.
[7] abbreviates: Adriamycin alone 21 mg/kg i.v., Day 6.

In the case of `COc1cccc2c1C(=O)c1c(O)c3c(c(O)c1C2=O)C[C@@](O)(C(=O)CO)C[C@@H]3O[C@H]1C[C@H](N)[C@H](O)[C@H](C)O1` [Adriamycin, doxorubicin], the mortality entry in series [1] (Adriamycin 21 mg/kg i.v., 7 days post-treatment) was “all dead”; in series [2] (setting [7]) it was “all dead”; in series [3] (Adriamycin alone 21 mg/kb i.v., Day 6), “all dead”; in series [4] (setting [7]), “all dead”. For the same compound, the “time to death from start of the therapy” value in series [1] (setting [6]) is ≤ 8 days; in series [2] (setting [6]) it was ≤ 8 days; in series [3] (setting [6]), ≤ 8 days; in series [4] (setting [6]), ≤ 10 days. For the same compound, the “% Rats Alive After Treatment” value was 100% in series [5] (Days 0-8); 100% in series [5] (Days 9-10); 100% in series [5] (Days 11-26); 80% in series [5] (Days 27-29); 0% in series [5] (Days 30-32); 0% in series [5] (Days 33-40). Further, the “% Rats Alive After Treatment” value in series [5] (Days 41-43) is given as 0%.
